Source: patent US4220577A, “Iodopropargyl pyridyl and picolinyl ethers and thioethers as paint fungicides” (Givaudan Corporation, priority 1979, dated 1980)
Values after ≈ are worked out from the molar mass of the structure shown. One block for each compound: values may come before it.

Assays:
[1] = test system: Proteus vulgaris; assay: 5-fold serial dilution test in agar, MIC, B4; type: cell-based; settings: 37° C., 48 hours, read-out: Minimum Inhibitory Concentration Range
Procedure: (§1) Antibacterial and antifungal activity were evaluated by a 5-fold serial dilution test in agar. In this test, compounds were prepared as 6% solutions in dimethylformamide or ethanol. The 6% solution was then 5-fold serially diluted in test tubes to give the desired concentrations when mixed with agar and poured into sterile Petri dishes. Trypticase glucose extract agar was used for the bacterial testing; mildew glucose agar for the fungal testing. The bacterial plates were spot inoculated with 24-hour nutrient broth cultures and incubated at 37° C. for 48 hours. The fungal plates were spot inoculated with spore suspensions and incubated at 28° C. for seven days. At the end of the incubation periods, all plates were examined for growth. The minimum inhibitory concentration (MIC) for each organism is expressed in Table I. In the ranges presented, growth is observed only at the lower concentration.

[2] = test system: Aureobasidium pullulans; assay: 5-fold serial dilution test in agar, MIC, F4; type: cell-based; settings: 168 h, 28° C., seven days, read-out: Minimum Inhibitory Concentration Range
Procedure: as §1
F4 Aureobasidium pullulans

[3] = test system: Bacillus subtilis; assay: 5-fold serial dilution test in agar, MIC, B5; type: cell-based; settings: 37° C., 48 hours, read-out: Minimum Inhibitory Concentration Range
Procedure: as §1
B5 Bacillus subtilis 4 3 μg/ml

[4] = test system: Penicillium piscarium; assay: 5-fold serial dilution test in agar, MIC, F3; type: cell-based; settings: 168 h, 28° C., seven days, read-out: Minimum Inhibitory Concentration Range
Procedure: as §1
F3 Penicillium piscarium

[5] = test system: Escherichia coli; assay: 5-fold serial dilution test in agar, MIC, B2; type: cell-based; settings: 37° C., 48 hours, read-out: Minimum Inhibitory Concentration Range
Procedure: as §1

[6] = test system: Aspergillus niger; assay: 5-fold serial dilution test in agar, MIC, F1; type: cell-based; settings: 168 h, 28° C., seven days, read-out: Minimum Inhibitory Concentration Range
Procedure: as §1

[7] = test system: Staphylococcus aureus; assay: 5-fold serial dilution test in agar, MIC, B1; type: cell-based; settings: 37° C., 48 hours, read-out: Minimum Inhibitory Concentration Range
Procedure: as §1
B1 Staphylococcus aureus

[8] = test system: Pseudomonas aeruginosa; assay: 5-fold serial dilution test in agar, MIC, B3; type: cell-based; settings: 37° C., 48 hours, read-out: Minimum Inhibitory Concentration Range
Procedure: as §1
B3 Pseudomonas aeruginosa

[9] = test system: Aspergillus oryzae; assay: 5-fold serial dilution test in agar, MIC, F2; type: cell-based; settings: 168 h, 28° C., seven days, read-out: Minimum Inhibitory Concentration Range
Procedure: as §1

[10] = test system: Aureobasidium pullulans (strain 2); assay: Antifungal activity of painted birch blades after exposure to heat and light; type: cell-based; parameters: key to Surface Growth: 0: No growth; 1: Slight growth; 2: Moderate growth; 3: Heavy growth; settings: after light (300-400 nm) and heat (40° C.) four weeks
Procedure: Successful paint fungicides must be stable when exposed to the elements such as heat and light. Such stability was tested in the laboratory by exposing painted sticks to heat and light. The compounds of this invention were incorporated into an exterior vinyl acetate latex paint as described in Example XXI. Birch blades (tongue depressors) were painted (two coats) and continuously exposed to light (wavelength 300-400 nm) and heat (40° C.) for four consecutive weeks. At the end of the exposure time, one-inch squares of the painted birch blades were cut and tested according to the procedure of Example XXI, using strain 2.

[11] = test system: mildew; assay: Outdoor field test of painted pine panels; settings: .5%
Source text: A number of the compounds were field tested in various latex paints. Pine panels (6"×12"×1/2") were given two coats of paint and, after drying, were exposed at an outdoor location subject to high heat and humidity levels. Paints containing the novel componds of this invention were compared with those containing the commercial mecurial mildewcide phenyl mecuric acetate (PMA), a commercial non-mercurial mildewcide 2-n-octyl-4-isothiazolin-3-one and 3-iodo-2-propynyloxybenzene.

[12] = test system: Aureobasidium pullulans (strain 1); assay: Antifungal activity on painted surfaces, strain 1; type: cell-based; parameters: key to Surface Growth: 0: No growth; 1: Slight growth; 2: Moderate growth; 3: Heavy growth; settings: Strain 1, three weeks
Procedure: (§2) Any antifungal agent which can be used to prevent mildew on painted surfaces must be effective against Aureobasidium pullulans, the organism which is primarily responsible for mildew on painted surfaces. The effectiveness of the novel compounds was tested by incorporating the compound into an exterior latex paint, applying the paint to a surface, and testing the ability of the painted surface to prevent the growth of Aureobasidium pullulans. The tests were run as described below. The novel compounds were incorporated into an exterior vinyl acetate latex paint by mulling the compound into the paint. The compounds were tested in the paints at levels of 0.25% and 0.5%. One coat of this paint was applied to each side of a piece of Whatman #30 filter paper. Two one-inch squares were cut from the filter paper. Each square was centered on the agar surface of separate Petri dishes containing malt agar. One square was inoculated with a suspension of Aureobasidium pullulans (strain 1) which was an in-house strain used for routine antimicrobial testing. The second square was inoculated with a suspension of Aureobasidium pullulans (strain 2) which was grown from a culture obtained from the surface of a mildew infested panel. Squares painted with the same exterior vinyl acetate latex paint, but without the novel compounds of this invention, were run in parallel. The Petri dishes were then incubated at 27° C. and at greater than 90% humidity for a three week period and observed for zones of inhibition and surface growth.

[13] = test system: Aureobasidium pullulans (strain 2); assay: Antifungal activity on painted surfaces, strain 2; type: cell-based; parameters: key to Surface Growth: 0: No growth; 1: Slight growth; 2: Moderate growth; 3: Heavy growth; key to Zone of Inhibition: 0: no zone; 1-5 mm; 2: 6-10 mm; 3: 11-15 mm; 4: 16-20 mm; 5: >20 mm; settings: Strain 2, three weeks
Procedure: as §2

[14] = 0.25% in vinyl acetate latex paint
[15] = 0.5% in vinyl acetate latex paint

- MIC [1]: > 1920 mg/L
- MIC [2]: 0.03 to 0.12 mg/L (≈ 0.0976 to 0.39 µM)
- MIC [3]: 15 to 76 mg/L (≈ 48.8 to 247 µM)
- MIC [4]: 0.12 to 0.6 mg/L (≈ 0.39 to 1.95 µM)
- MIC [5]: > 1920 mg/L
- MIC [6]: < 0.03 mg/L
- MIC [7]: 384 to 1920 mg/L (≈ 1250 to 6240 µM)
- MIC [8]: > 1920 mg/L
- MIC [9]: 0.03 to 0.12 mg/L (≈ 0.0976 to 0.39 µM)
Structure (SMILES): Cc1ccc(OCC#CI)c(Cl)n1 [drawing 5]

Structure (SMILES): IC#CCOc1ccncc1 [drawing 26]
- Surface Growth ([10]; 0.25%): 2
- Surface Growth ([10]; 0.5%): 2

Structure (SMILES): IC#CCOc1cccnc1 [Compound 1, 3-(3-iodo-2-propynyloxy)pyridine]
- Panel Scoring ([11]; Paint B (Acrylic latex-alkyd modified), month 5): 8
- Panel Scoring ([11]; Paint B (Acrylic latex-alkyd modified), month 6): 8

Structure (SMILES): Cc1ccc(OCC#CI)c(Cl)n1 [drawing 22]
- Surface Growth ([10]; 0.5%): 0

Structure (SMILES): Nc1ncccc1OCC#CI [drawing 14]
- Surface Growth [12, 14]: 0
- Surface Growth [12, 15]: 0
- Zone of Inhibition [12, 15]: 2 (6-10 mm)
- Surface Growth [13, 14]: 0
- Zone of Inhibition [13, 14]: 0
- Surface Growth [13, 15]: 0
- Zone of Inhibition [13, 15]: 0

- MIC [1]: 3 to 15 mg/L (≈ 10.9 to 54.7 µM)
- MIC [2]: 0.6 to 3 mg/L (≈ 2.19 to 10.9 µM)
- MIC [3]: 15 to 76 mg/L (≈ 54.7 to 277 µM)
- MIC [4]: 0.6 to 3 mg/L (≈ 2.19 to 10.9 µM)
- MIC [5]: 15 to 76 mg/L (≈ 54.7 to 277 µM)
- MIC [6]: 0.12 to 0.6 mg/L (≈ 0.438 to 2.19 µM)
- MIC [7]: 15 to 76 mg/L (≈ 54.7 to 277 µM)
- MIC [8]: 76 to 384 mg/L (≈ 277 to 1400 µM)
- MIC [9]: 0.12 to 0.6 mg/L (≈ 0.438 to 2.19 µM)
Structure (SMILES): Nc1ncccc1OCC#CI [drawing 6]

Structure (SMILES): Clc1ncccc1OCC#CI [drawing 13]
- Surface Growth [12, 14]: 0
- Zone of Inhibition [12, 14]: 2 (6-10 mm)
- Surface Growth [12, 15]: 0
- Zone of Inhibition [12, 15]: 3 (11-15 mm)
- Surface Growth [13, 14]: 0
- Zone of Inhibition [13, 14]: 1 (1-5 mm)
- Surface Growth [13, 15]: 0
- Zone of Inhibition [13, 15]: 2 (6-10 mm)

Structure (SMILES): IC#CCOc1ccccc1 [reference compound]
- Surface Growth ([10]; 0.25%): 3
- Surface Growth ([10]; 0.5%): 2

Structure (SMILES): IC#CCOc1cccnc1 [drawing 11]
- Surface Growth [12, 14]: 0
- Zone of Inhibition [12, 14]: 3 (11-15 mm)
- Surface Growth [12, 15]: 0
- Zone of Inhibition [12, 15]: 3 (11-15 mm)

Structure (SMILES): Nc1ncccc1OCC#CI [drawing 23]
- Surface Growth ([10]; 0.25%): 1
- Surface Growth ([10]; 0.5%): 0

- MIC [1]: 384 to 1920 mg/L (≈ 1400 to 6980 µM)
- MIC [2]: 0.12 to 0.6 mg/L (≈ 0.436 to 2.18 µM)
- MIC [3]: 76 to 384 mg/L (≈ 276 to 1400 µM)
- MIC [4]: 0.12 to 0.6 mg/L (≈ 0.436 to 2.18 µM)
- MIC [5]: > 1920 mg/L
- MIC [6]: < 0.03 mg/L
- MIC [7]: 384 to 1920 mg/L (≈ 1400 to 6980 µM)
- MIC [8]: > 1920 mg/L
- MIC [9]: 0.12 to 0.6 mg/L (≈ 0.436 to 2.18 µM)
Structure (SMILES): IC#CCSc1ccncc1 [drawing 10]

Structure (SMILES): CCCCCCCCn1sccc1=O [II, 2-n-octyl-4-isothiazolin-3-one, reference compound]
- Panel Scoring ([11]; Paint A (Vinyl acetate latex), month 4): 8

- MIC [1]: 3 to 15 mg/L (≈ 10.2 to 51.1 µM)
- MIC [2]: 0.12 to 0.6 mg/L (≈ 0.409 to 2.04 µM)
- MIC [3]: 3 to 15 mg/L (≈ 10.2 to 51.1 µM)
- MIC [4]: 0.12 to 0.6 mg/L (≈ 0.409 to 2.04 µM)
- MIC [5]: 15 to 76 mg/L (≈ 51.1 to 259 µM)
- MIC [6]: < 0.03 mg/L
- MIC [7]: 3 to 15 mg/L (≈ 10.2 to 51.1 µM)
- MIC [8]: > 1920 mg/L
- MIC [9]: 0.03 to 0.12 mg/L (≈ 0.102 to 0.409 µM)
Structure (SMILES): Clc1ncccc1OCC#CI [drawing 4]

Structure (SMILES): Cc1ccc(OCC#CI)cn1 [drawing 12]
- Surface Growth [12, 14]: 0
- Zone of Inhibition [12, 14]: 2 (6-10 mm)
- Surface Growth [12, 15]: 0
- Zone of Inhibition [12, 15]: 2 (6-10 mm)
- Surface Growth [13, 14]: 0
- Zone of Inhibition [13, 14]: 1 (1-5 mm)
- Surface Growth [13, 15]: 0
- Zone of Inhibition [13, 15]: 2 (6-10 mm)
